From patent US9187486B2 (AMGEN INC., priority 2011, dated 2015)
Like-named read-outs stand apart in the source and are kept apart here. Values belong to the compound of their own block, whether it stands above or below them.

Columns and labels:
[1] = system: KMS-12-BM myeloma cell line; experiment: Pim cell assay: phospho-BAD (S112) and total BAD in KMS-12-BM cells; assay type: cell-based; conditions: 1 hour and 50 minutes incubation, read-out: KMS-12-BM IC50 IP
Procedure: The KMS-12-BM myeloma cell line was used to determine the in vitro cellular inhibition of Pim kinases. Disruption of Pim signaling by Pim inhibitors was determined by measuring the levels of phospho-BAD (S112) and total BAD. […] The cells were then incubated overnight at 37° C., 5% CO2. […] In addition to the 10-point dosing curve of the test compound, DMSO alone was run as a control. This dilution in DMSO was then diluted again into cell growth medium. Aliquots (11.1 uL) of the compound diluted in growth medium were then transferred to the appropriate wells of the 96-well plates containing cells to yield a final DMSO concentration of 0.3%. The cell plates were then incubated with compound for 1 hour and 50 minutes at 37° C., 5% CO2. After the 1 hour and 50 min incubation, the cell plates were spun at 1000 RPM for 10 minutes and the compound-containing medium was removed. […] The cell plates containing lysis buffer were then immediately stored at −70° C. These prepared lysates were then assayed for phospho-(S112) and total-BAD according to the manufacturer's protocol (Meso Scale Diagnostics, Cat # K15103D-3). The plates were read on the MSD Sector Imager 6000, and results were calculated according to the assay protocol: ((% Phosphoprotein=((2×Phospho signal)/(Phospho signal+Total signal))×100)).

Pim-1 = Pim-1 (Homo sapiens (Human), UniProt P11309); experiment: Pim enzyme assay (HTRF, phosphorylation of biotinylated-BAD (S112) peptide), Pim-1; assay type: biochemical; conditions: full length recombinant Pim-1, biotinylated-BAD (S112) peptide, HTRF
Text: (§1) Full-length human cDNAs encoding Pim-1 (MGC ID 3913552) or Pim-2 (IMAGE ID 5092935) were purchased from Invitrogen, Carlsbad, Calif. These cDNAs were used as templates in PCR reactions to produce full-length DNA clones of the PIMs. Oligonucleotide PCR primers for Pim-1 were 5′-[…]-3′ and 5′-[…]-3′. Oligonucleotide PCR primers for Pim-2 were 5′-[…]-3′ and 5′-[…]-3′. PCR products were digested with BclI and EcoRI for Pim-1 and BamHI and EcoRI for Pim-2 and ligated into a modified baculovirus transfer vector (pFastBac 1) cleaved with BamHI and EcoRI. For bacterial expression, the same cleaved PCR products encoding Pim-1 or Pim-2 were ligated into a modified E. coli expression vector pET28(a) cleaved with BamHI and EcoRI. Amino-terminal hexahistidine tags followed by a thrombin cleavage site were previously added to the vectors using standard methods of molecular biology. Recombinant baculoviruses expressing Pim-1 or Pim-2 were made using standard methods (Fastbac manual, Invitrogen, Carlsbad, Calif.). Infection of Sf9 cells was done at an m.o.i. of greater than 5 for 24-48 h. Cells were harvested by centrifugation and frozen at −80 C. For E. coli expression, cells carrying pET28-His6-Th-Pim-1 or pET28-His6-Th-Pim-2 were picked from a single colony and grown o/n in LB media. The o/n culture was used to inoculate a 2 liter flask with 500 mL media. This was grown o/n and used to inoculate 15-20 liters of Terrific Broth in a New Brunswick Scientific fermentor. The E. coli were grown at 37° C. to and OD600>1.6. The temperature was dropped to 18° C. and o/n expression was induced with 0.5 mM IPTG. Cells were harvested by centrifugation and frozen at −80° C.
(§2) The frozen cell pellets were thawed by stirring in chilled lysis buffer (0.05 M HEPES, pH 8.0, 0.25 M NaCl, 0.01 M 2-mercaptoethanol, 10% (w/v) glycerol, 0.5% (v/v) protease inhibitor cocktail (Sigma P-8340) at a ratio of 1 L/200 g cells until homogeneous. The thawed suspension was applied to a microfluidizer at 10,000 PSI to disrupt the cells and the whole lysates were clarified by centrifugation at 50,000×g for 90 min, 4° C. Imidazole was added to the clarified lysate to a final concentration of 2.5 mM and the lysate was mixed with 10 mL of Talon resin (Clontech) and the slurry rocked gently overnight at 4° C. The slurry was centrifuged at 1,000×g for 5 min, the supernatant decanted, and the resin suspended in 40 mL of lysis wash buffer (lysis buffer at 0.75 M NaCl). This step was repeated 3× and the resin was transferred to a 2.5 cm glass column. Ten column volumes of wash buffer (0.05 M HEPES, pH 8.0, 0.1 M NaCl, 0.01 M 2-mercaptoethanol, 10% (w/v) glycerol) were applied to the resin followed by 10 column volumes of elution buffer (0.05 M HEPES, pH 8.0, 0.25 M NaCl, 0.01 M 2-mercaptoethanol, 10% (w/v) glycerol, 0.1 M imidazole). Fractions were analyzed by SDS-PAGE and those containing the protein of interest were pooled and concentrated. The concentrated protein was applied to an Amersham Superdex 75 (XK 26/60) column equilibrated in 0.025 M Tris-HCl, pH 7.5, 0.1 M NaCl, 0.01 M 2-mercaptoethanol, 10% (w/v) glycerol. […] Fractions containing the monomeric protein of interest were pooled, concentrated to ˜2 mg/mL, and stored at −80° C.
(§3) The phosphorylation of biotinylated-BAD (S112) peptide by full length recombinant Pim-1, Pim-2, or Pim-3 protein was detected with streptavidin:Allophycocyanin (APC) conjugate and a europium (Eu) labeled antibody directed against phosphorylated-BAD (S112). Excitation of Eu by a high energy laser light (337 nm) leads to a transfer of energy to the APC molecule, and results in an emission at 665 nm. The fluorescence is directly proportional to the amount of phosphorylated BAD peptide present in the reaction.

Pim-2 = Pim-2 (Homo sapiens (Human), UniProt Q9P1W9); experiment: Pim enzyme assay (HTRF, phosphorylation of biotinylated-BAD (S112) peptide), Pim-2; assay type: biochemical; conditions: full length recombinant Pim-2, biotinylated-BAD (S112) peptide, HTRF
Text: as §1, §2, §3

[2] = 96-well, read-out: Pim-1 IC50 IP
[3] = 96-well, read-out: Pim-2 IC50 IP

Pim-2, sequence (Q9P1W9 whole entry): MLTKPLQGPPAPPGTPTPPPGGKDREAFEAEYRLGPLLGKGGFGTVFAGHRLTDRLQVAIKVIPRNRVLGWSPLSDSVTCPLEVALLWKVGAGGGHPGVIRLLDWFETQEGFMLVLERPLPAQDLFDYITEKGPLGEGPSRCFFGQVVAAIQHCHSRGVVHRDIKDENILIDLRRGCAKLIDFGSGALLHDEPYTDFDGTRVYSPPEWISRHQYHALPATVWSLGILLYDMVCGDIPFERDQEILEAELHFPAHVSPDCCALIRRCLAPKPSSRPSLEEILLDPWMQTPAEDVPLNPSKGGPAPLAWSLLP
Pim-1, sequence (P11309 whole entry): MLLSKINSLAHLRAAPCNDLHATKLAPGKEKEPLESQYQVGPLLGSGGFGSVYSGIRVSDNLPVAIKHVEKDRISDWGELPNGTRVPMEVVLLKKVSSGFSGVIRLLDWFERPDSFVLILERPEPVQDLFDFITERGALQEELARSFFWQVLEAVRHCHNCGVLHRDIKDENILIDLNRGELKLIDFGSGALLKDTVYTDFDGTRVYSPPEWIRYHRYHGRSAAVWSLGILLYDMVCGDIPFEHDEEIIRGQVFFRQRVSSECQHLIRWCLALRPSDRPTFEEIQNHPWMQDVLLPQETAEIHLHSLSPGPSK

Compound: N[C@@H]1CN(c2ccncc2Nc2ncc3ccc(-c4c(F)cccc4F)nn23)CC[C@H]1F (single isomer, unassigned) [Example 45, N-(4-(trans-3-amino-4-fluoropiperidin-1-yl)pyridin-3-yl)-2-(2,6-difluorophenyl)imidazo[1,5-b]pyridazin-7-amine]
IC50 [1]: 1070 nM

Compound: C[C@H]1CC[C@H](N)CN1c1ccncc1Nc1ncc2ccc(-c3ncccc3F)nn12 (single isomer, unassigned) [Example 97, N-(4-((trans)-5-amino-2-methylpiperidin-1-yl)pyridin-3-yl)-2-(3-fluoropyridin-2-yl)imidazo[1,5-b]pyridazin-7-amine tris(2,2,2-trifluoroacetate)]
IC50 ([1]; Homo sapiens, KMS-12-BM): 362 nM

Compound: C[C@H]1CN(c2ccncc2Nc2ncc3ccc(-c4c(F)cccc4F)nn23)[C@@H](C)CN1 [Example 49, 2-(2,6-difluorophenyl)-N-(4-((2S,5S)-2,5-dimethylpiperazin-1-yl)pyridin-3-yl)imidazo[1,5-b]pyridazin-7-amine]
IC50 ([1]; Homo sapiens, KMS-12-BM): 12100 nM

Compound: C[C@@H]1CN(c2ccncc2Nc2ncc3ccc(-c4c(F)cccc4F)nn23)[C@@H](C)CN1 (single isomer, unassigned) [Example 52, 2-(2,6-difluorophenyl)-N-(4-((trans)-2,5-dimethyl-1-piperazinyl)-3-pyridinyl)imidazo[1,5-b]pyridazin-7-amine]
IC50 ([1]; Homo sapiens, KMS-12-BM): > 15800 nM

Compound: C[C@H]1CC[C@@H](N)CN1c1ccncc1Nc1ncc2ccc(-c3ncccc3F)nn12 (single isomer, unassigned) [Example 94, N-(4-((cis)-5-amino-2-methylpiperidin-1-yl)pyridin-3-yl)-2-(3-fluoropyridin-2-yl)imidazo[1,5-b]pyridazin-7-amine tris(2,2,2-trifluoroacetate)]
IC50 ([1]; tris(2,2,2-trifluoroacetate)): 14100 nM

Compound: CN[C@H]1CCCN(c2ccncc2Nc2ncc3ccc(-c4c(F)cccc4F)nn23)C1 [Example 59, (S)-2-(2,6-difluorophenyl)-N-(4-(3-(methylamino)piperidin-1-yl)pyridin-3-yl)imidazo[1,5-b]pyridazin-7-amine]
IC50 (Pim-1; [2]): 2 nM
IC50 (Pim-2; [3]): 31 nM

Compound: N[C@@H]1C=C(c2ccncc2Nc2ncc3ccc(-c4c(F)cccc4F)nn23)CCC1 (racemic) [Example 82, rac-N-(4-(3-aminocyclohex-1-en-1-yl)pyridin-3-yl)-2-(2,6-difluorophenyl)imidazo[1,5-b]pyridazin-7-amine tris(2,2,2-trifluoroacetate)]
IC50 ([1]; Homo sapiens, KMS-12-BM): 1200 nM
IC50 (Pim-1; [2]): 1.2 nM

Compound: C[C@@H]1C[C@H](N)CN(c2ccncc2Nc2ncc3ccc(-c4c(F)cccc4F)nn23)C1 (single isomer, unassigned) [Example 39, N-(4-((cis)-3-amino-5-methylpiperidin-1-yl)pyridin-3-yl)-2-(2,6-difluorophenyl)imidazo[1,5-b]pyridazin-7-amine]
IC50 [1]: 1750 nM

Compound: N[C@H]1CCCN(c2ccncc2Nc2nnc3ccc(-c4c(F)cccc4F)nn23)C1 [Example 67, (S)-N-(4-(3-aminopiperidin-1-yl)pyridin-3-yl)-6-(2,6-difluorophenyl)-[1,2,4]triazolo[4,3-b]pyridazin-3-amine 2,2,2-trifluoroacetate]
IC50 (Pim-1; [2]): 4.5 nM
IC50 (Pim-2; [3]): 35.4 nM

Compound: C[C@H]1CC[C@H](N)CN1c1ccncc1Nc1ncc2ccc(-c3c(F)cccc3F)nn12 (single isomer, unassigned) [Example 88, N-(4-(5-amino-2-methylpiperidin-1-yl)pyridin-3-yl)-2-(2,6-difluorophenyl)imidazo[1,5-b]pyridazin-7-amine tris(2,2,2-trifluoroacetate)]
IC50 ([1]; tris(2,2,2-trifluoroacetate)): 9820 nM

Compound: COC(C)CN(C)c1ccncc1Nc1ncc2ccc(-c3c(F)cccc3F)nn12 (centres unmarked) [Example 77, N3-(2-(2,6-difluorophenyl)imidazo[1,5-b]pyridazin-7-yl)-N4-(2-methoxypropyl)-N4-methylpyridine-3,4-diamine]
IC50 (Pim-1; [2]): 150 nM
IC50 (Pim-2; [3]): > 1000 nM

Continued, values first:

IC50 ([1]; tris(2,2,2-trifluoroacetate)): 48.8 nM
Compound: C[C@H]1CC[C@H](N)CN1c1ccncc1Nc1ncc2ccc(-c3c(F)cccc3F)nn12 (single isomer, unassigned) [Example 87, N-(4-(5-amino-2-methylpiperidin-1-yl)pyridin-3-yl)-2-(2,6-difluorophenyl)imidazo[1,5-b]pyridazin-7-amine tris(2,2,2-trifluoroacetate)]

IC50 ([1]; Homo sapiens, KMS-12-BM): 95 nM
Compound: C[C@@H]1C[C@H](N)CN(c2ccncc2Nc2ncc3ccc(-c4c(F)cccc4F)nn23)C1 (racemic) [Example 37, rac-N-(4-((cis)-3-amino-5-methylpiperidin-1-yl)pyridin-3-yl)-2-(2,6-difluorophenyl)imidazo[1,5-b]pyridazin-7-amine tris(2,2,2-trifluoroacetate)]

IC50 [1]: 27.6 nM
Compound: C[C@@H]1C[C@H](N)CN(c2ccncc2Nc2ncc3ccc(-c4c(F)cccc4F)nn23)C1 (single isomer, unassigned) [Example 38, N-(4-((cis)-3-amino-5-methylpiperidin-1-yl)pyridin-3-yl)-2-(2,6-difluorophenyl)imidazo[1,5-b]pyridazin-7-amine]

IC50 ([1]; Homo sapiens, KMS-12-BM): 1090 nM
IC50 (Pim-1; [2]): 1.1 nM
Compound: N[C@@H]1C=C(c2ccncc2Nc2ncc3ccc(-c4c(F)cccc4F)nn23)CCC1 (single isomer, unassigned) [Example 83, N-(4-(3-aminocyclohex-1-en-1-yl)pyridin-3-yl)-2-(2,6-difluorophenyl)imidazo[1,5-b]pyridazin-7-amine tris(2,2,2-trifluoroacetate)]

IC50 ([1]; Homo sapiens, KMS-12-BM): 465 nM
Compound: N[C@@H]1CN(c2ccncc2Nc2ncc3ccc(-c4c(F)cccc4F)nn23)CC[C@H]1F (racemic) [Example 43, rac-N-(4-(trans-3-amino-4-fluoropiperidin-1-yl)pyridin-3-yl)-2-(2,6-difluorophenyl)imidazo[1,5-b]pyridazin-7-amine]

IC50 (Pim-1; read-out: Pim_1_IC50): 206 nM
IC50 (Pim-2; read-out: Pim2_IC50): > 1000 nM
Compound: Nc1cncc(-c2ccncc2Nc2ncc3ccc(-c4c(F)cccc4F)nn23)c1 [Example 29, N3′-(2-(2,6-difluorophenyl)imidazo[1,5-b]pyridazin-7-yl)-3,4′-bipyridine-3′,5-diamine]
